# Literature values, collected in US10646532B2, “Method for preparing water extract of ashwagandha leaves which has enhanced anti-cancer activity utilizing cyclodextrin, and pharmaceutical composition containing ashwagandha leaves” (National Institute of Advanced Industrial Science and …, priority 2014, dated 2020).
# Test system: cancer cells / normal cells
# Conditions: in vitro test, background art
structure (smiles),measurement,value
CC1=C(C)C(=O)OC([C@@H](C)C2(O)CC[C@H]3[C@@H]4[C@@H]5O[C@@H]5C5(O)CC=CC(=O)[C@]5(C)[C@H]4CC[C@@]32C)C1 (stereo partly shown) [withanone],cytotoxicity to cancer cells versus normal cells,selective cytotoxicity to cancer cells
